Broadly, the Kd is a measure of binding affinity in units of concentration. A higher Kd goes with weaker binding.

Where only a bound is given, the exact number is not on record here.

The target in this experiment is human TYK2 (JH2domain-pseudokinase) (Homo sapiens (Human), UniProt P29597). As to the kind of experiment: TYK2 JH2 Domain Binding Assay (KINOMEscan, DiscoveRx). The settings on record: 11-point dilution, duplicate. Summed up: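 TYK2 JH2 (G556–D888)–NFkB DBD fusion, DNA-tagged, from HEK293 extracts (<0.1 nM) competed against immobilised biotinylated ligand for 1 h at room temperature, 0.9% DMSO. Bead-retained kinase quantified by qPCR; Kd from 11-point 3-fold series (top 30,000 nM, duplicate), Hill fit with slope −1.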
human TYK2 (JH2domain-pseudokinase), sequence (P29597 556-888): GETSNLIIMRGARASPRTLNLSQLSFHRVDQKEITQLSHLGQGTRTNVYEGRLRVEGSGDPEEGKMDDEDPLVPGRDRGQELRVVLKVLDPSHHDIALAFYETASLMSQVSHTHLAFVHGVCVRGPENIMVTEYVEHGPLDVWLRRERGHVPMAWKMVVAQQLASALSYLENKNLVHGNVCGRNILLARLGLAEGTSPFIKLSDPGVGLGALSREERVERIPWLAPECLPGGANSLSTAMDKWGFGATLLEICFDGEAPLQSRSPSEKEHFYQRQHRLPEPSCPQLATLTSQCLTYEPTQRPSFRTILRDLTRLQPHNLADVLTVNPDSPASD
Molecule `Cc1nc2c(Nc3ccc([C@H]4CCC(C)(C)CO4)cc3S(C)(=O)=O)cc(NC(=O)C3CC3)nc2[nH]1` [I-551, (R)—N-(7-((4-(5,5-dimethyltetrahydro-2H-pyran-2-yl)-2-(methylsulfonyl)phenyl)amino)-2-methyl-3H-imidazo[4,5-b]pyridin-5-yl)cyclopropanecarboxamide] yielded a Kd of 0.5 to 1 nM.
Molecule `CS(=O)(=O)c1cc(F)ccc1Nc1cc(Nc2cccc(C#N)n2)nc2[nH]c(C(F)F)nc12` [I-552, 6-((2-(difluoromethyl)-7-((4-fluoro-2-(methylsulfonyl)phenyl)amino)-3H-imidazo[4,5-b]pyridin-5-yl)amino)picolinonitrile] came in with a Kd of 0.1 to 0.5 nM.
As for `Cc1nc2c(Nc3ccc(F)cc3S(C)(=O)=O)cc(Nc3cccc(C#N)n3)nc2[nH]1` [I-553, 6-((7-((4-fluoro-2-(methylsulfonyl)phenyl)amino)-2-methyl-3H-imidazo[4,5-b]pyridin-5-yl)amino)picolinonitrile], the figure is 0.1 to 0.5 nM.
`COc1cc(-c2nn(C)cc2C)ccc1Nc1cc(NC(=O)C2CC2)nc2[nH]c(C(F)F)nc12` [I-554, N-(2-(difluoromethyl)-7-((4-(1,4-dimethyl-1H-pyrazol-3-yl)-2-methoxyphenyl)amino)-3H-imidazo[4,5-b]pyridin-5-yl)cyclopropanecarboxamide] yielded a Kd of 1 to 10 nM.
In the case of `COc1cc(-c2nn(C)cc2C)ccc1Nc1cc(NC(=O)C2CC2)nc2[nH]c(C)nc12` [I-555, N-(7-((4-(1,4-dimethyl-1H-pyrazol-3-yl)-2-methoxyphenyl)amino)-2-methyl-3H-imidazo[4,5-b]pyridin-5-yl)cyclopropanecarboxamide] it was 0.5 to 1 nM; in that of `COc1c(Nc2cc(NC(=O)C3CC3)nc3[nH]c(C(F)F)nc23)ccc(-c2nn(C)cc2C)c1F` [I-556, N-(2-(difluoromethyl)-7-((4-(1,4-dimethyl-1H-pyrazol-3-yl)-3-fluoro-2-methoxyphenyl)amino)-3H-imidazo[4,5-b]pyridin-5-yl)cyclopropanecarboxamide], over 10 nM; in that of `COc1c(Nc2cc(NC(=O)C3CC3)nc3[nH]c(C)nc23)ccc(-c2nn(C)cc2C)c1F` [I-557, N-(7-((4-(1,4-dimethyl-1H-pyrazol-3-yl)-3-fluoro-2-methoxyphenyl)amino)-2-methyl-3H-imidazo[4,5-b]pyridin-5-yl)cyclopropanecarboxamide], over 10 nM.
As for `COc1c(Nc2cc(Nc3cccc(C#N)n3)nc3[nH]c(C(F)F)nc23)cccc1-c1nccs1` [I-558, 6-((2-(difluoromethyl)-7-((2-methoxy-3-(thiazol-2-yl)phenyl)amino)-3H-imidazo[4,5-b]pyridin-5-yl)amino)picolinonitrile], the Kd was 1 to 10 nM.
As for `COc1cc(-c2nc(C)c(C)s2)ccc1Nc1cc(NC(=O)C2CC2)nc2[nH]c(C)nc12` [I-559, N-(7-((4-(4,5-dimethylthiazol-2-yl)-2-methoxyphenyl)amino)-2-methyl-3H-imidazo[4,5-b]pyridin-5-yl)cyclopropanecarboxamide], the figure is 1 to 10 nM; as for `Cc1nc2c(Nc3ccc(-c4nn(C)c(C)c4C)cc3S(C)(=O)=O)cc(NC(=O)C3CC3)nc2[nH]1` [I-560, N-(2-methyl-7-((2-(methylsulfonyl)-4-(1,4,5-trimethyl-1H-pyrazol-3-yl)phenyl)amino)-3H-imidazo[4,5-b]pyridin-5-yl)cyclopropanecarboxamide], under 0.1 nM.
As for `Cc1nc2c(Nc3ccc(-c4oc(C)cc4C)cc3S(C)(=O)=O)cc(NC(=O)C3CC3)nc2[nH]1` [I-561, N-(7-((4-(3,5-dimethylfuran-2-yl)-2-(methylsulfonyl)phenyl)amino)-2-methyl-3H-imidazo[4,5-b]pyridin-5-yl)cyclopropanecarboxamide], the figure is 1 to 10 nM.
Turning to `Cc1nc2c(Nc3ccc(-c4cnn(C5CC5)c4C)cc3S(C)(=O)=O)cc(NC(=O)C3CC3)nc2[nH]1` [I-562, N-(7-((4-(1-cyclopropyl-5-methyl-1H-pyrazol-4-yl)-2-(methylsulfonyl)phenyl)amino)-2-methyl-3H-imidazo[4,5-b]pyridin-5-yl)cyclopropanecarboxamide], the Kd is under 0.1 nM.
As for `Cc1cc(Nc2cc(Nc3ccc(C4=NC(C)(C)CS4)cc3S(C)(=O)=O)c3nc(C(F)F)[nH]c3n2)nc(C)n1` [I-563, 2-(difluoromethyl)-N7-(4-(4,4-dimethyl-4,5-dihydrothiazol-2-yl)-2-(methylsulfonyl)phenyl)-N5-(2,6-dimethylpyrimidin-4-yl)-3H-imidazo[4,5-b]pyridine-5,7-diamine], the figure is 1 to 10 nM.
Molecule `Cc1cc(Nc2cc(Nc3ccc(C4=NC(C)(C)CS4)cc3S(C)(=O)=O)c3nc(C)[nH]c3n2)nc(C)n1` [I-564, N7-(4-(4,4-dimethyl-4,5-dihydrothiazol-2-yl)-2-(methylsulfonyl)phenyl)-N5-(2,6-dimethylpyrimidin-4-yl)-2-methyl-3H-imidazo[4,5-b]pyridine-5,7-diamine] came in with a Kd of 0.1 to 0.5 nM.
Consider `Cc1ncc(Nc2cc(Nc3ccc(C4=NC(C)(C)CS4)cc3S(C)(=O)=O)c3nc(C(F)F)[nH]c3n2)nc1C` [I-565, 2-(difluoromethyl)-N7-(4-(4,4-dimethyl-4,5-dihydrothiazol-2-yl)-2-(methylsulfonyl)phenyl)-N5-(5,6-dimethylpyrazin-2-yl)-3H-imidazo[4,5-b]pyridine-5,7-diamine], for which the Kd is 1 to 10 nM.
In the case of `Cc1nc2c(Nc3ccc(C4=NC(C)(C)CS4)cc3S(C)(=O)=O)cc(Nc3cnc(C)c(C)n3)nc2[nH]1` [I-566, N7-(4-(4,4-dimethyl-4,5-dihydrothiazol-2-yl)-2-(methylsulfonyl)phenyl)-N5-(5,6-dimethylpyrazin-2-yl)-2-methyl-3H-imidazo[4,5-b]pyridine-5,7-diamine] it was 1 to 10 nM.
Regarding `CC1(C)CSC(c2ccc(Nc3cc(NC(=O)C4CC4)nc4[nH]c(C(F)F)nc34)c(S(C)(=O)=O)c2)=N1` [I-567, N-(2-(difluoromethyl)-7-((4-(4,4-dimethyl-4,5-dihydrothiazol-2-yl)-2-(methylsulfonyl)phenyl)amino)-3H-imidazo[4,5-b]pyridin-5-yl)cyclopropanecarboxamide], the Kd fell in the range of 1 to 10 nM.
As for `Cc1nc2c(Nc3ccc(C4=NC(C)(C)CS4)cc3S(C)(=O)=O)cc(NC(=O)C3CC3)nc2[nH]1` [I-568, N-(7-((4-(4,4-dimethyl-4,5-dihydrothiazol-2-yl)-2-(methylsulfonyl)phenyl)amino)-2-methyl-3H-imidazo[4,5-b]pyridin-5-yl)cyclopropanecarboxamide], the figure is 0.5 to 1 nM; as for `Cc1nc2c(Nc3ccc([C@H]4CCCO4)cc3S(C)(=O)=O)cc(Nc3cccc(C#N)n3)nc2[nH]1` [I-569, (R)-6-((2-methyl-7-((2-(methylsulfonyl)-4-(tetrahydrofuran-2-yl)phenyl)amino)-3H-imidazo[4,5-b]pyridin-5-yl)amino)picolinonitrile], under 0.1 nM.
As for `Cc1nc2c(Nc3ccc([C@@H]4CCCO4)cc3S(C)(=O)=O)cc(Nc3cccc(C#N)n3)nc2[nH]1` [I-570, (S)-6-((2-methyl-7-((2-(methylsulfonyl)-4-(tetrahydrofuran-2-yl)phenyl)amino)-3H-imidazo[4,5-b]pyridin-5-yl)amino)picolinonitrile], the figure is 0.1 to 0.5 nM.
